In the supplement of paper PMC10627819:

How the values were obtained:
B. subtilis 168 [1] = assay: fitness (endpoint OD595 vs no drug) (fraction); higher = more growth
How it was run: (§1)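 Fitness is computed from the optical density at which cultures reach stationary phase, divided by the robust mean of no-drug control wells. Any value above 1 is set to 1. Cultures started at OD595 0.01 in 384-well plates with TSB, LB Lennox or CY at 37 °C, and OD595 was read every 30 min for 14 h against a first-reading background.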

S. pneumoniae D39V [2] = assay: as above
How it was run: as §1

B. subtilis 168 [3] = assay: Bliss interaction score (quartile over a dose matrix) (fitness difference); higher = more antagonism (negative = synergy)
How it was run: (§2)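 Fitness here means normalised growth, inferred for single drugs from the combination data. Growth was OD595 at entry into stationary phase, divided by the plate's robust no-drug mean and capped at 1. The Bliss score is observed minus expected fitness, with the expectation being the product, and its quartiles span technical, biological and donor/recipient replicates.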

S. aureus DSM 20231 = assay: as above
How it was run: as §2

S. aureus Newman = assay: as above
How it was run: as §2

S. pneumoniae D39V [4] = assay: as above
How it was run: as §2
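For Bliss interaction score (quartile over a dose matrix) in this document: first quartile when negative (synergy) and third quartile when positive (antagonism).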
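For fitness (endpoint OD595 vs no drug) in this document: OD595 on entry to stationary phase over no-drug wells; at most 1.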

CN(C)C(=O)C(CCN1CCC(O)(c2ccc(Cl)cc2)CC1)(c1ccccc1)c1ccccc1 [Loperamide] + CCC(C)C1C(=O)NC(=C)C(=O)NC(C(=O)NC(CSCC(C(=O)N1)NC(=O)/C(=C/C)/NC(=O)C(C(C)CC)N)C(=O)NC2C(SCC(NC(=O)CNC(=O)C3CCCN3C2=O)C(=O)NC(CCCCN)C(=O)NC4C(SCC(NC(=O)CNC(=O)C(NC(=O)C(NC(=O)C(NC(=O)CNC4=O)C)CC(C)C)CCSC)C(=O)NC(CC(=O)N)C(=O)NC(CCSC)C(=O)NC(CCCCN)C(=O)NC5C(SCC6C(=O)NC(C(=O)NC(CSC(C(C(=O)N6)NC(=O)C(NC5=O)C)C)C(=O)NC(CO)C(=O)NC(C(C)CC)C(=O)NC(CC7=CN=CN7)C(=O)NC(C(C)C)C(=O)NC(=C)C(=O)NC(CCCCN)C(=O)O)CC8=CN=CN8)C)C)C)CC(C)C [Nisin]
fitness, one replicate, main component drawn
Settings	first compound 25 µg/mL	first compound 50 µg/mL	first compound 68.57 µg/mL	first compound 100 µg/mL
B. subtilis 168 [1], partner 0.5 µg/mL	0.435	0.0779	–	0.108
B. subtilis 168 [1], partner 1 µg/mL	0.11	0.0703	–	0.0347
B. subtilis 168 [1], partner 1.25 µg/mL	0.204	0.0476	–	0.0457
B. subtilis 168 [1], partner 1.6 µg/mL	0.1	0.0166	–	0.0155
B. subtilis 168 [1], partner 2 µg/mL	0.088	0.0708	–	0.0438
B. subtilis 168 [1], partner 2.5 µg/mL	0.0567	0.0575	–	0.0577
B. subtilis 168 [1], partner 3.2 µg/mL	0.0289	0.0291	–	0.0362
B. subtilis 168 [1], partner 4 µg/mL	0.0315	0.0232	–	0.0127
B. subtilis 168 [1], partner 5 µg/mL	0.0493	0.0332	–	0.0475
B. subtilis 168 [1], partner 6.4 µg/mL	0.035	0.0454	–	0.077
B. subtilis 168 [1], partner 8 µg/mL	0.0084	0.0257	–	0.0094
B. subtilis 168 [1], partner 16 µg/mL	0.0263	0.037	–	0.0142
S. pneumoniae D39V [2], partner 1.6 µg/mL	–	–	0.001	–
S. pneumoniae D39V [2], partner 3.2 µg/mL	–	–	0	–
S. pneumoniae D39V [2], partner 6.4 µg/mL	–	–	0	–

S. pneumoniae D39V [2], main component drawn
Settings	fitness
first compound 17.14 µg/mL, partner 1.6 µg/mL	0.0272
first compound 17.14 µg/mL, partner 3.2 µg/mL	0.0109
first compound 17.14 µg/mL, partner 6.4 µg/mL	0.0062
first compound 20 µg/mL, partner 0.4275 µg/mL	0.827
first compound 20 µg/mL, partner 1.71 µg/mL	0.063
first compound 34.28 µg/mL, partner 1.6 µg/mL	0.0162
first compound 34.28 µg/mL, partner 3.2 µg/mL	0
first compound 34.28 µg/mL, partner 6.4 µg/mL	0.0091
first compound 40 µg/mL, partner 0.4275 µg/mL	0.145
first compound 40 µg/mL, partner 0.855 µg/mL	0.0969
first compound 40 µg/mL, partner 1.71 µg/mL	0.0997
first compound 80 µg/mL, partner 0.4275 µg/mL	0.0928
first compound 80 µg/mL, partner 0.855 µg/mL	0.073
first compound 80 µg/mL, partner 1.71 µg/mL	0.102

main component drawn
Settings	Bliss interaction score
B. subtilis 168 [3]	-0.126
S. aureus DSM 20231	-0.423
S. aureus Newman	-0.076
S. pneumoniae D39V [4]	-0.175

C[C@H]1COc2c(N3CCN(C)CC3)c(F)cc3c(=O)c(C(=O)O)cn1c23 [Levofloxacin] + Cc1ncc([N+](=O)[O-])n1CCO [Metronidazole]
fitness, B. subtilis 168 [1], one replicate
Settings	first compound 0.001 µg/mL	first compound 0.002 µg/mL	first compound 0.0039 µg/mL
partner 0.625 µg/mL	0.946	0.911	0.852
partner 1.25 µg/mL	0.96	0.85	0.845
partner 2.5 µg/mL	0.965	0.929	0.855

Settings	fitness
B. subtilis 168 [1], first compound 0.0312 µg/mL, partner 0.625 µg/mL	0.0462
B. subtilis 168 [1], first compound 0.0312 µg/mL, partner 1.25 µg/mL	0.0567
B. subtilis 168 [1], first compound 0.0312 µg/mL, partner 2.5 µg/mL	0.0324
B. subtilis 168 [1], first compound 0.0625 µg/mL, partner 0.625 µg/mL	0.0491
B. subtilis 168 [1], first compound 0.0625 µg/mL, partner 1.25 µg/mL	0.0521
B. subtilis 168 [1], first compound 0.0625 µg/mL, partner 2.5 µg/mL	0.0541
B. subtilis 168 [1], first compound 0.125 µg/mL, partner 0.625 µg/mL	0.0404
B. subtilis 168 [1], first compound 0.125 µg/mL, partner 1.25 µg/mL	0.0466
B. subtilis 168 [1], first compound 0.125 µg/mL, partner 2.5 µg/mL	0.0398
S. pneumoniae D39V [2], first compound 0.1725 µg/mL, partner 1.25 µg/mL	0.985
S. pneumoniae D39V [2], first compound 0.1725 µg/mL, partner 2.5 µg/mL	0.993
S. pneumoniae D39V [2], first compound 0.1725 µg/mL, partner 5 µg/mL	0.976
S. pneumoniae D39V [2], first compound 0.2 µg/mL, partner 1.073 µg/mL	0.95
S. pneumoniae D39V [2], first compound 0.2 µg/mL, partner 2.145 µg/mL	0.91
S. pneumoniae D39V [2], first compound 0.2 µg/mL, partner 4.29 µg/mL	0.899
S. pneumoniae D39V [2], first compound 0.345 µg/mL, partner 1.25 µg/mL	0.903
S. pneumoniae D39V [2], first compound 0.345 µg/mL, partner 2.5 µg/mL	0.92
S. pneumoniae D39V [2], first compound 0.345 µg/mL, partner 5 µg/mL	0.931
S. pneumoniae D39V [2], first compound 0.4 µg/mL, partner 1.073 µg/mL	0.873
S. pneumoniae D39V [2], first compound 0.4 µg/mL, partner 2.145 µg/mL	0.85
S. pneumoniae D39V [2], first compound 0.4 µg/mL, partner 4.29 µg/mL	0.819
S. pneumoniae D39V [2], first compound 0.69 µg/mL, partner 1.25 µg/mL	0.7
S. pneumoniae D39V [2], first compound 0.69 µg/mL, partner 2.5 µg/mL	0.704
S. pneumoniae D39V [2], first compound 0.69 µg/mL, partner 5 µg/mL	0.686
S. pneumoniae D39V [2], first compound 0.8 µg/mL, partner 1.073 µg/mL	0.765
S. pneumoniae D39V [2], first compound 0.8 µg/mL, partner 2.145 µg/mL	0.765
S. pneumoniae D39V [2], first compound 0.8 µg/mL, partner 4.29 µg/mL	0.71

Settings	Bliss interaction score
B. subtilis 168 [3]	0.0195
S. aureus DSM 20231	-0.0575
S. aureus Newman	-0.0661
S. pneumoniae D39V [4]	0.121
